Reference: patent US20080280886A1, “SUBSTITUTED UREAS” (AUSPEX PHARMACEUTICALS, INC., priority 2007, published 2008)

Tests used:
[1] = In vitro liver microsomal stability assay; assay type: in vitro ADME; conditions: 1 mg per mL liver microsome protein, NADPH-generating system, 5 microgram per mL compound, 37° C., 0-60 min, LC/MS/MS
Procedure: Liver microsomal stability assays are conducted at 1 mg per mL liver microsome protein with an NADPH-generating system in 2% NaHCO3 (2.2 mM NADPH, 25.6 mM glucose 6-phosphate, 6 units per mL glucose 6-phosphate dehydrogenase and 3.3 mM MgCl2). Test compounds are prepared as solutions in 20% acetonitrile-water and added to the assay mixture (final assay concentration 5 microgram per mL) and incubated at 37° C. Final concentration of acetonitrile in the assay should be <1%. Aliquots (50 μL) are taken out at times 0, 15, 30, 45, and 60 min, and diluted with ice cold acetonitrile (200 μL) to stop the reactions. Samples are centrifuged at 12,000 RPM for 10 min to precipitate proteins. Supernatants are transferred to microcentrifuge tubes and stored for LC/MS/MS analysis of the degradation half-life of the test compounds.

dopamine release = conditions: Li et al. 2005; cited from earlier work
[2] = tested on: hyperactivity induced by NMDA receptor antagonist MK-801; conditions: Vanover et al. 2006; cited from earlier work
[3] = tested on: DOI-induced head twitches; conditions: rodent; Vanover et al. 2006; cited from earlier work

[2H]C([2H])(NC(=O)N(C1CCN(C([2H])([2H])[2H])CC1)C([2H])([2H])c1ccc(F)cc1)c1ccc(OC([2H])([2H])C(C)C)cc1 [Example 3, d9-1-(4-Fluorobenzyl)-3-(4-isobutoxybenzyl)-1-(1-methylpiperidin-4-yl)urea hemi-tartrate]
increase in degradation half-life as compared to the non-isotopically enriched drug (Pimavanserin) [1]: 17%

CC(C)COc1ccc(CNC(=O)N(Cc2ccc(F)cc2)C2CCN(C)CC2)cc1 [Pimavanserin, 1-(4-fluoro-benzyl)-3-(4-isobutoxy-benzyl)-1-(1-methyl-piperidin-4-yl)-urea]
dopamine release when combined with haloperidol (dopamine release): potentiate dopamine release
hyperactivity induced by MK-801 (dozocilpine) [2]: attenuate hyperactivity
DOI-induced head twitches [3]: reduce
